Experimental findings from patent publication US20250215029A1 (Recludix Pharma, Inc., priority 2022, published 2025) are described below.

For experiment [1], the target named is T1, Recombinant STAT6 protein (STAT6 (W123-T658)) (Homo sapiens, UniProt P42226).
T1 construct: Recombinant STAT6 protein (STAT6 (W123-T658))
T1 sequence (P42226 123-658): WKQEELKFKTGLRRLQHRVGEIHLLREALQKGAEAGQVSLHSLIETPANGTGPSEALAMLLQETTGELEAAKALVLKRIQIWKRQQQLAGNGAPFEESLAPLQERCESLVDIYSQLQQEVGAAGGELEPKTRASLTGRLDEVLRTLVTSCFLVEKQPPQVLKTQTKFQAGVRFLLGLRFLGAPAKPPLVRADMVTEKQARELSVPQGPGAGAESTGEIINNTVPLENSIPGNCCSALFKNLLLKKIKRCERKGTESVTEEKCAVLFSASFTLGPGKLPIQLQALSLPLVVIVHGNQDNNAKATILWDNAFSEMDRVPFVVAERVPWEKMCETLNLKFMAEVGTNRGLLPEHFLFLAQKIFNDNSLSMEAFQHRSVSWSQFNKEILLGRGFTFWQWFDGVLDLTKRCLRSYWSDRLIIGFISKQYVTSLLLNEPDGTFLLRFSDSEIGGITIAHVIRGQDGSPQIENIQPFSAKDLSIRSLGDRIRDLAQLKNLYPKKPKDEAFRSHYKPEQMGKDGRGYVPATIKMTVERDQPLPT
Briefly: STAT6 Fluorescence Polarization (FP) Assay. The class given is binding. Particulars: STAT6 (W123-T658) 250 nM, probe 5-FAM-Ap[…]-NH2 2 nM, 45-minute incubation; read-out: STAT6 (FP assay IC50 class). In a few lines:
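Displacement of a fluorescent phosphotyrosine peptide (2 nM) from 250 nM STAT6 (W123-T658) is measured by polarization after a 45-minute room-temperature incubation. Compounds are titrated serially at 1% DMSO, and IC50 values derive from regression of mP on log concentration.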
(In general: Polarisation of emitted light reports the rotation of a fluorescent probe.)

Experiment [2] has as its target T2, Recombinant STAT3 protein (STAT3 (G127-I722)) (Homo sapiens, UniProt P40763).
T2 construct: Recombinant STAT3 protein (STAT3 (G127-I722))
Briefly: STAT3 Fluorescence Polarization (FP) Assay. Format: binding. Particulars: STAT3 (G127-I722) 25 nM, probe 5-FAM-GpYLPQTV-NH2 2 nM, 45-minute incubation; read-out: STAT3 (FP assay IC50 class). In a few lines:
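Compounds in serial dilution receive a premix of STAT3 (G127-I722, 25 nM) and fluorescent phosphotyrosine peptide 5-FAM-GpYLPQTV-NH2 (2 nM) at pH 7.4. After 45 min at room temperature, FP is measured and IC50 derived by nonlinear regression.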

SMILES strings stand for the structures.

T2 sequence (P40763 127-722): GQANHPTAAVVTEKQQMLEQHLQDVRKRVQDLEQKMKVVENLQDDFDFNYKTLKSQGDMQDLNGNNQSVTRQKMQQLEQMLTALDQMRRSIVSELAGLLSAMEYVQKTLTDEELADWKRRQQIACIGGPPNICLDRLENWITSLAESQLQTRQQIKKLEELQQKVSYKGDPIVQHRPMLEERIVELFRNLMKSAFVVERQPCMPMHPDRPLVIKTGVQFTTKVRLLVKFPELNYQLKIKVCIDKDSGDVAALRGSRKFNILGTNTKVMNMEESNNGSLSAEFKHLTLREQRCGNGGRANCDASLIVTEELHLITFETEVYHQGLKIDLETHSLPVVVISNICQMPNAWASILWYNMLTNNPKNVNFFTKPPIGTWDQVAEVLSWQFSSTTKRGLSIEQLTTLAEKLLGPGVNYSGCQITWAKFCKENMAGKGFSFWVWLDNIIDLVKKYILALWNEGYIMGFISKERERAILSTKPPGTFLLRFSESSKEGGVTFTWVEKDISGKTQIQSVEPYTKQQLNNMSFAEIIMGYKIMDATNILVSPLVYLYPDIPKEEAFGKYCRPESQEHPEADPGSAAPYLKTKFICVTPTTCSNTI

Take `CCc1ccncc1C1CN(C(=O)[C@@H]2CC[C@@H]3CCC[C@H](NC(=O)c4cc5cc(C(F)P(=O)(O)O)ccc5s4)C(=O)N32)C1` (stereo partly drawn) [Compound 205, ((2-(((3S,6S,9aS)-3-(3-(4-ethylpyridin-3-yl)azetidine-1-carbonyl)-5-oxooctahydro-1H-pyrrolo[1,2-a]azepin-6-yl)carbamoyl)benzo[b]thiophen-5-yl)fluoromethyl)phosphonic acid]: the IC50 in experiment [1] is 3 to 30 µM; in experiment [2] it was less than 0.1 µM.
Turning to `COc1ccncc1C1CN(C(=O)[C@@H]2CC[C@@H]3CCC[C@H](NC(=O)c4cc5cc(C(F)P(=O)(O)O)ccc5s4)C(=O)N32)C1` (stereo partly drawn) [Compound 206, (fluoro(2-(((3S,6S,9aS)-3-(3-(4-methoxypyridin-3-yl)azetidine-1-carbonyl)-5-oxooctahydro-1H-pyrrolo[1,2-a]azepin-6-yl)carbamoyl)benzo[b]thiophen-5-yl)methyl)phosphonic acid], the figures for the IC50 in experiment [1] and in experiment [2] were 3 to 30 µM and less than 0.1 µM, respectively.
With `C[C@H]1C[C@H]2CC[C@@H](C(=O)N3CC(c4cnccc4F)C3)N2C(=O)[C@@H](NC(=O)c2cc3cc(C(F)P(=O)(O)O)ccc3s2)C1` (stereo partly drawn) [Compound 207, (fluoro(2-(((3S,6S,8R,9aR)-3-(3-(4-fluoropyridin-3-yl)azetidine-1-carbonyl)-8-methyl-5-oxooctahydro-1H-pyrrolo[1,2-a]azepin-6-yl)carbamoyl)benzo[b]thiophen-5-yl)methyl)phosphonic acid], the values for the IC50 in experiment [1] and in experiment [2] were 3 to 30 µM and less than 0.1 µM, respectively.
The like results for `O=C(N[C@H]1CCC[C@H]2CC[C@@H](C(=O)N3CC(c4cccnc4)C3)N2C1=O)c1cc2nc(CP(=O)(O)O)ccc2s1` [Compound 208, ((2-(((3S,6S,9aS)-5-oxo-3-(3-(pyridin-3-yl)azetidine-1-carbonyl)octahydro-1H-pyrrolo[1,2-a]azepin-6-yl)carbamoyl)thieno[3,2-b]pyridin-5-yl)methyl)phosphonic acid] were, in that order, 3 to 30 µM and 1 to 10 µM.
The like results for `C[C@@H]1C[C@H]2CC[C@@H](C(=O)N3CC(c4cnccc4F)C3)N2C(=O)[C@@H](NC(=O)c2cc3cc(C(F)P(=O)(O)O)ccc3s2)C1` (stereo partly drawn) [Compound 209, (fluoro(2-(((3S,6S,8S,9aR)-3-(3-(4-fluoropyridin-3-yl)azetidine-1-carbonyl)-8-methyl-5-oxooctahydro-1H-pyrrolo[1,2-a]azepin-6-yl)carbamoyl)benzo[b]thiophen-5-yl)methyl)phosphonic acid] were, in that order, 0.3 to 3 µM and less than 0.1 µM.
On the same counts, the results for `CC[C@@H]1CC[C@H](NC(=O)c2cc3cc(C(F)P(=O)(O)O)ccc3s2)C(=O)N2[C@H](CC[C@H]2C(=O)N2CC(c3cnccc3OC)C2)C1` (stereo partly drawn) [Compound 210, ((2-(((3S,6S,9R,10aR)-9-ethyl-3-(3-(4-methoxypyridin-3-yl)azetidine-1-carbonyl)-5-oxodecahydropyrrolo[1,2-a]azocin-6-yl)carbamoyl)benzo[b]thiophen-5-yl)fluoromethyl)phosphonic acid] are 3 to 30 µM and less than 0.1 µM.
For the compound `COc1ccncc1C1CN(C(=O)[C@@H]2CC[C@@H]3C[C@H](C(C)C)CC[C@H](NC(=O)c4cc5cc(C(F)P(=O)(O)O)ccc5s4)C(=O)N32)C1` (stereo partly drawn) [Compound 211, (fluoro(2-(((3S,6S,9R,10aR)-9-isopropyl-3-(3-(4-methoxypyridin-3-yl)azetidine-1-carbonyl)-5-oxodecahydropyrrolo[1,2-a]azocin-6-yl)carbamoyl)benzo[b]thiophen-5-yl)methyl)phosphonic acid], the half-maximal inhibitory concentration (IC50) in experiment [1] was 3 to 30 µM; in experiment [2], less than 0.1 µM.

The IC50 is the point on the concentration scale where inhibition reaches its midpoint.
